Patent publication US12285397B2, “Use of (s)-3-amino-4-(difluoromethylenyl) cyclopent-1-ene-1-carboxylic acid and related compounds, (1S,3S)-3-amino-4-(difluoromethylidene) cyclopentane-1-carboxylic acid and vigabatrin in the treatment of developmental disorders” (Ovid Therapeutics Inc., priority 2018, dated 2025)

What was measured:
Format in all cases: in vivo, mouse
[1] = system: Fmr1 KO2 mice; experiment: Open field hyperactivity (locomotor activity), Fmr1 KO2 mice
Text: (§1) Mutant fmr1 knockout (KO) mice recapitulate the Fragile X syndrome (FXS) phenotype and represent a preclinical model for assessment of putative drug treatments. In this study three different mice models of FXS were used: Fmr1 KO1 is the original Fmr1 knockout animal that carries an insertion in exon 5. See, e.g., Bakker C E, et al., The Dutch-Belgian Fragile X Consortium, Fmr1 knockout mice: A model to study fragile X mental retardation. Cell. 1994; 78:23-33 It is a protein null, although Fmr1 mRNA is still present. It is backcrossed to the C57/B16 strain. Subsequently, these mice were bred into different background strains, such as the FVB inbred mouse strain. Fmr1 KO2 is a null allele at Fmr1 generated by deletion of the promoter and first exon of Fmr1. See, Mientjes, E J et al., The generation of a conditional Fmr1 knock out mouse model to study Fmrp function in vivo. Neurobiology of Disease (2006) 21(3): 549-555. It is both protein and mRNA null. Backcrossed to the C57/B16 strain. Genotyping was accomplished using TransnetXY Automated Genotyping (http://www.transnetyx.com/). TRANSNETYX, INC., 8110 Cordova Rd. Suite 119, Cordova, TN 38016, USA.
(§2) The mice were housed in plastic cages (35×30×12 cm), 5 in each and habituated to the animal facilities for at least a week before test. The room temperature (21±2° C.), relative humidity (55±5%), a 12-h light-dark cycle (lights on 7 a.m.-7 p.m.) and air exchange (16 times per h) were automatically controlled. The animals had free access to commercial food pellets and water. Testing was conducted during the light phase. Testing was conducted on Fmr1 knockout mice and their wild-type (WT) littermates. Ten mice per treatment group, 14 weeks of age, were used for behavioral experiments. Experiments were conducted in line with the requirements of the UK Animals (Scientific Procedures) Act, 1986.
(§3) Oral dosing was performed by using 1.5-in. curved, 20-gauge, stainless steel feeding needles with a 2.25-mm ball (Braintree Scientific, Braintree, MA). Each gavage treatment was given in 0.5% methyl cellulose (Methyl Cellulose M0512, Sigma-Aldrich, St Louis, MO) used as vehicle with or without treatment compounds. The same veterinarian, blinded to the treatment groups, performed the procedure, and documented animal reactions to oral gavage. Reactions considered to indicate stress were defined as excessive struggling during gavage or abnormal behavior after gavage (labored breathing, frozen stance, exaggerated jumping, shuddering, and hunched posture).
(§4) For experiments all mice were tested once in the same apparatus. Prior to testing, mice not in the study were placed in the apparatus for some minutes before the experiment. The apparatus was then cleaned with moist and dry tissues before testing each mouse. The aim was to create a low but constant background mouse odor for all experimental subjects. All experiments were conducted with the experimenters blind to genotype and drug treatment during all testing and data analysis. Separate investigators prepared and coded dosing solutions, allocated the mice to the study treatment groups, dosed the animals, and collected the behavioral data. Data were analyzed by one-way analysis of variance (ANOVA) followed by post-hoc comparisons where appropriate using Tukey's Multiple Comparison Test. Data are represented as the mean and standard error of the mean (SEM).
1. […]

[2] = system: Fmr1 KO1 mice; experiment: Open field repetitive behavior: counter revolutions (CCW), Fmr1 KO1 mice
Text: as §1, §2, §3, §4
(§5) 2. Open Field Repetitive Behaviors (RB) (stereotypies: anticlockwise circling and self grooming). Fmr1 KO1 mice display the autism-like phenotypes of repetitive behaviors like counter revolutions (CCW), self grooming and stereotypy that typically involves behaviors such as head bobbing. […]

[3] = system: Fmr1 KO1 mice; experiment: Open field repetitive behavior: self grooming, Fmr1 KO1 mice
Text: as §1, §2, §3, §4, §5

[4] = system: Fmr1 KO1 transgenic mice in an FVB background; experiment: Audiogenic seizures (AGS), Fmr1 KO1 mice in FVB background; conditions: for Incidence / Respiratory arrest / Seizure / Wild running: audio stimulus 60 seconds at 124 db
Experimental: 4. Audiogenic Seizures (AGS) are reflex seizures generated by loud noises in genetically predisposed mice. The Fmr1 KO1 mice display audiogenic seizures depending on age and background strain, the Fmr1 KO1 mouse on the FVB background is characterized by an increased AGS susceptibility at all ages and is considered a good animal model for epilepsy. The effect of (S)-3-amino-4-(difluoromethylenyl) cyclopent-1-ene-1-carboxylic acid was tested on AGS Fmr1 KO1 transgenic mice in an FVB background. Observable criteria are: 1. normal behavior, 2. wild running, 3. seizure, and 4. respiratory arrest.
(S)-3-amino-4-(difluoromethylenyl) cyclopent-1-ene-1-carboxylic acid was administered to Fmr1 KO1 mice, males, age 2 months in the following amounts: 0.01 mg/kg, 0.05 mg/kg, and 0.1 mg/kg. Positive controls were administered 2-Methyl-6-(phenylethynyl)pyridine (MPEP), a mGluR5 antagonist, 30 mg/kg by i.p. and tested 20 minutes after injection. Audio stimulus was administered continuously for 60 seconds at 124 db.

## N[C@H]1C=C(C(=O)O)CC1=C(F)F [Compound, (S)-3-Amino-4-(difluoromethylenyl)cyclopent-1-ene-1-carboxylic acid]
[1]; 0.01 mg/Kg PO QD seven days
  Open field locomotor activity (total distance traveled), WT-Veh vs. KO2-Compound: Significant?: Yes
[1]; 0.05 mg/Kg PO QD seven days
  Open field locomotor activity (total distance traveled), WT-Veh vs. KO2-Compound: Significant?: Yes
[1]; 0.1 mg/Kg PO QD seven days
  Open field locomotor activity (total distance traveled), WT-Veh vs. KO2-Compound: Significant?: No
  Open field locomotor activity (total distance traveled), WT-Veh vs. KO2-Compound: Summary: ns
[2]; 0.01 mg/Kg PO QD seven days
  Open field counter revolutions (CCW), WT-Veh vs. KO1-Compound: Significant?: Yes
[2]; 0.05 mg/Kg PO QD seven days
  Open field counter revolutions (CCW), WT-Veh vs. KO1-Compound: Significant?: No
  Open field counter revolutions (CCW), WT-Veh vs. KO1-Compound: Summary: ns
[2]; 0.1 mg/Kg PO QD seven days
  Open field counter revolutions (CCW), WT-Veh vs. KO1-Compound: Significant?: No
  Open field counter revolutions (CCW), WT-Veh vs. KO1-Compound: Summary: ns
[2]; 0.05 and 0.1 mg/Kg
  Effect on CCW repetitive behavior (FIG. 8): reversed CCW repetitive behavior
[3]; 0.01 mg/Kg PO QD seven days
  Self grooming (time spent grooming), WT-Veh vs. KO1-Compound: Significant?: Yes
[3]; 0.05 mg/Kg PO QD seven days
  Self grooming (time spent grooming), WT-Veh vs. KO1-Compound: Significant?: No
  Self grooming (time spent grooming), WT-Veh vs. KO1-Compound: Summary: ns
[3]; 0.1 mg/Kg PO QD seven days
  Self grooming (time spent grooming), WT-Veh vs. KO1-Compound: Significant?: No
  Self grooming (time spent grooming), WT-Veh vs. KO1-Compound: Summary: ns
[3]; 0.05 and 0.1 mg/Kg
  Time self-grooming compared with WT+veh (FIG. 9): did not differ from WT+veh
[4]; 0.01 mg/kg
  Incidence: 100%
  Respiratory arrest: 7/10
  Seizure: 10/10
  Wild running: 10/10
[4]; 0.05 mg/kg
  Incidence: 100%
  Respiratory arrest: 5/10
  Seizure: 8/10
  Wild running: 10/10
[4]; 0.1 mg/Kg, Fmr1 KO1 mice (FVB background)
  Audiogenic seizure susceptibility reduced to: 40%
[4]; 0.1 mg/kg
  Incidence: 40%
  Respiratory arrest: 4/10
  Seizure: 5/10
  Wild running: 4/10
